Legend:
[1] = molecular target: T1, CDK6-CYCLIND3 (Homo sapiens, UniProt Q00534); assay: Microfluidic LabChip kinase inhibition assay, CDK6-CyclinD3; assay type: biochemical; details: Table 2; 300 μM ATP, 2 nM enzyme; read-out: CDK6 IC50
T1 construct: purchased Carna

[2] = molecular target: CDK4-CYCLIND1 (Homo sapiens, UniProt P11802); assay: Microfluidic LabChip kinase inhibition assay, CDK4-CyclinD1; details: CDK4 IC50 (μM), Table 2; 200 μM ATP, 1 nM enzyme
Chain of CDK4-CYCLIND1 (P11802 whole entry): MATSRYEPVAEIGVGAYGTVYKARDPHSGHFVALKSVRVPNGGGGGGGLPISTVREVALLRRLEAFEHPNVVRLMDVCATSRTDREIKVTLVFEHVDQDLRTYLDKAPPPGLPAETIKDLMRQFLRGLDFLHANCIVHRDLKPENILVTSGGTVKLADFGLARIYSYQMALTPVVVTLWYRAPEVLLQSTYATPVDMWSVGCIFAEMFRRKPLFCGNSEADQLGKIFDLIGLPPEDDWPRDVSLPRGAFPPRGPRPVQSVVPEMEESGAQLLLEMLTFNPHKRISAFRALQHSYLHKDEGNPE
Chain of CDK4-CYCLIND1 (P24385 whole entry partner): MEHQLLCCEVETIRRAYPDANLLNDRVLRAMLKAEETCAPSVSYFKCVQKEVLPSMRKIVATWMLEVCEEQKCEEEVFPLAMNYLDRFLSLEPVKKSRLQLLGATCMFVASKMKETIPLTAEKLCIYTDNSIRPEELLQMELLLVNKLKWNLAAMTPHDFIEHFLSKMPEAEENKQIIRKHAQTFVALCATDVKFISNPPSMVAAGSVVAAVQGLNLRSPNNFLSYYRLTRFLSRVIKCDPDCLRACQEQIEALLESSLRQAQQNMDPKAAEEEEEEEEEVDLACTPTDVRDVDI
Protocol: Inhibition assays were performed using microfluidic LabChip 300 Drug Discovery System from Caliper Life Sciences. […] The assay has a total volume of 10 μL consisting of 5 μL of enzyme and buffer and 5 μL of substrate and buffer. The test compounds were diluted in 100% dimethylsulfoxide (DMSO) using 3-fold dilution steps. […] Compounds were tested in a single well for each dilution and the final concentration of DMSO was maintained at 1%.
The assay buffer contained 100 mM HEPES, pH 7.5, 0.01% Triton X-100, 0.1% bovine serum albumin (BSA), 5 mM MgCl2; 1 mM dithiothreitol (DTT), 10 μM sodium orthovanadate, and 10 μM β-glycerophosphate.
The assay was conducted by adding 5 μL of enzyme, adenosine triphosphate (ATP) and buffer to an assay plate. A 100 nL aliquot of the diluted compounds were added to the plate. The assay was initiated by the addition of 5 μL of phosphoenolpyruvate substrate (PEP) in buffer. […] The reaction was terminated by the addition of EDTA. The plates were analyzed using a Caliper LabChip 3000.

T1 sequence (Q00534 whole entry): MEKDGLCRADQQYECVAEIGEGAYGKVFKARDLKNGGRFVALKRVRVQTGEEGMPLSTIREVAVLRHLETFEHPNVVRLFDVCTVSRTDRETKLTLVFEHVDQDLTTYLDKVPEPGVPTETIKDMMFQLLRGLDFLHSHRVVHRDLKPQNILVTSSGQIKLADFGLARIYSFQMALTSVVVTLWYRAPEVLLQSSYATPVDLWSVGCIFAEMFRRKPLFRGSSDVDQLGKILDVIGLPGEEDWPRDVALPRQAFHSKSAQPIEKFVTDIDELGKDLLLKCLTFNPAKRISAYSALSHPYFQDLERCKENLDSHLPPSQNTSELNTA
T1 sequence (P30281 whole entry partner): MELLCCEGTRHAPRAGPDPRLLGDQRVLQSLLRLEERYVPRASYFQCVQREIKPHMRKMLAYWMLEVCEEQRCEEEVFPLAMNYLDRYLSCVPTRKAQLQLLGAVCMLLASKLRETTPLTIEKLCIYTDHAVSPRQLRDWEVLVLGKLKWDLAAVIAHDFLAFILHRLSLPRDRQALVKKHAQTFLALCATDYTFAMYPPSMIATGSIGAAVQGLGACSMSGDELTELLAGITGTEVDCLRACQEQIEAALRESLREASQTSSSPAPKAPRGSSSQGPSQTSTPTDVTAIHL

**Q.** Which IC50 [1] does the source give for COc1ccc(CN2CCC3(Cc4cnc(Nc5ccc(N6CCN(C)CC6)cn5)nc4N3C3CCCC3)C2=O)cc1 (stereo not shown) [Compound C30, 7′-cyclopentyl-1-(4-methoxybenzyl)-2′-((5-(4-methylpiperazin-1-yl)pyridin-2-yl)amino)-5′,7′-dihydrospiro[pyrrolidine-3,6′-pyrrolo[2,3-d]pyrimidin]-2-one] here?
**A.** > 30 µM

**Q.** What about the IC50 [2] of the same compound?
**A.** 8.21 µM

**Q.** Which results are given for COc1ccc(CN2CCC3(Cc4cnc(Nc5ccc(N6CCN(C(C)C)CC6)cn5)nc4N3C3CCCC3)C2=O)cc1 (stereo not shown) [Compound C31, 7′-cyclopentyl-2′-((5-(4-isopropylpiperazin-1-yl)pyridin-2-yl)amino)-1-(4-methoxybenzyl)-5′,7′-dihydrospiro[pyrrolidine-3,6′-pyrrolo[2,3-d]pyrimidin]-2-one]?
**A.** IC50 [1]: > 30 µM; IC50 [2]: 7.28 µM

**Q.** Which IC50 [1] does the source give for COc1ccc(CN2CCC3(Cc4cnc(Nc5ccc(OCCN(C)C)cn5)nc4N3C3CCCC3)C2=O)cc1 (stereo not shown) [Compound C32, 7′-cyclopentyl-2′-((5-(2-(dimethylamino)ethoxy)pyridin-2-yl)amino)-1-(4-methoxybenzyl)-5′,7′-dihydrospiro[pyrrolidine-3,6′-pyrrolo[2,3-d]pyrimidin]-2-one] here?
**A.** > 30 µM

**Q.** And the IC50 [2]?
**A.** 10.5 µM

**Q.** How did the IC50 [1] turn out when O=C1NCCC12Cc1cnc(Nc3ccc(N4CCNCC4)cn3)nc1N2C1CCCC1 (stereo not shown) [Compound C33, 7′-cyclopentyl-2′-((5-(piperazin-1-yl)pyridin-2-yl)amino)-5′,7′-dihydrospiro[pyrrolidine-3,6′-pyrrolo[2,3-d]pyrimidin]-2-one] was run?
**A.** 2.08 µM

**Q.** What about the IC50 [2] of the same compound?
**A.** 0.694 µM

**Q.** How did the IC50 [1] turn out when CN1CCN(c2ccc(Nc3ncc4c(n3)N(C3CCCC3)C3(CCNC3=O)C4)nc2)CC1 (stereo not shown) [Compound C34, 7′-cyclopentyl-2′-((5-(4-methylpiperazin-1-yl)pyridin-2-yl)amino)-5′,7′-dihydrospiro[pyrrolidine-3,6′-pyrrolo[2,3-d]pyrimidin]-2-one] was run?
**A.** 3.7 µM

**Q.** What about the IC50 [2] of the same compound?
**A.** 1.16 µM

**Q.** With O=C1NCCCC12Cc1cnc(Nc3ccc(N4CCNCC4)cn3)nc1N2C1CCCC1 (stereo not shown) [Compound C35, 7′-cyclopentyl-2′-((5-(piperazin-1-yl)pyridin-2-yl)amino)-5′,7′-dihydrospiro[piperidine-3,6′-pyrrolo[2,3-d]pyrimidin]-2-one] as the compound, how does the IC50 [1] read?
**A.** > 30 µM

**Q.** And the IC50 [2]?
**A.** 19.6 µM

**Q.** CN1CCN(c2ccc(Nc3ncc4c(n3)N(C3CCCC3)C3(CCCNC3=O)C4)nc2)CC1 (stereo not shown) [Compound C36, 7′-cyclopentyl-2′-((5-(4-methylpiperazin-1-yl)pyridin-2-yl)amino)-5′,7′-dihydrospiro[piperidine-3,6′-pyrrolo[2,3-d]pyrimidin]-2-one] was tested. Which IC50 [1] did it give?
**A.** > 30 µM

**Q.** And the IC50 [2]?
**A.** 29.3 µM

**Q.** Which results are given for CC(C)N1CCN(c2ccc(Nc3ncc4c(n3)N(C3CCCC3)C3(CCCNC3=O)C4)nc2)CC1 (stereo not shown) [Compound C37, 7′-cyclopentyl-2′-((5-(4-isopropylpiperazin-1-yl)pyridin-2-yl)amino)-5′,7′-dihydrospiro[piperidine-3,6′-pyrrolo[2,3-d]pyrimidin]-2-one]?
**A.** IC50 [1]: > 30 µM; IC50 [2]: > 30 µM

**Q.** For CC(C)N1CCN(c2ccc(Nc3ncc4c(n3)N(C3CCCC3)C3(CCNC3=O)C4)nc2)CC1 (stereo not shown) [Compound C38, 7′-cyclopentyl-2′-((5-(4-isopropylpiperazin-1-yl)pyridin-2-yl)amino)-5′,7′-dihydrospiro[pyrrolidine-3,6′-pyrrolo[2,3-d]pyrimidin]-2-one], which IC50 [1] is on record?
**A.** 2.99 µM

**Q.** And the IC50 [2]?
**A.** 0.631 µM

**Q.** How did the IC50 [1] turn out when CN1CCN(c2ccc(Nc3ncc4c(n3)N(C3CCCC3)C3(CCN(Cc5ccccc5)C3=O)C4)cc2F)CC1 (stereo not shown) [Compound C39, 1-benzyl-7′-cyclopentyl-2′-((3-fluoro-4-(4-methylpiperazin-1-yl)phenyl)amino)-5′,7′-dihydrospiro[pyrrolidine-3,6′-pyrrolo[2,3-d]pyrimidin]-2-one] was run?
**A.** 2.55 µM

**Q.** What about the IC50 [2] of the same compound?
**A.** 0.53 µM

**Q.** Which results are given for CN1CCN(c2ccc(Nc3ncc4c(n3)N(C3CCCC3)C3(CCCN(Cc5ccccc5)C3=O)C4)cc2F)CC1 (stereo not shown) [Compound C40, 1-benzyl-7′-cyclopentyl-2′-((3-fluoro-4-(4-methylpiperazin-1-yl)phenyl)amino)-5′,7′-dihydrospiro[piperidine-3,6′-pyrrolo[2,3-d]pyrimidin]-2-one]?
**A.** IC50 [1]: 10.7 µM; IC50 [2]: 2.96 µM
